Assay results published in patent US5637501A, “Apparatus for automatically testing the antibiotic sensitivity of a paraffinophilic microorganism” (Infectech, Inc., priority 1995, dated 1997).
Like-named read-outs stand apart in the source and are kept apart here.

System: MAI
Assay: antibiotic sensitivity (MIC) of MAI strains, paraffin slide culture and microliter assays
Type: cell-based, Mycobacterium avium-intracellulare
Design: key: NG: No Growth
Excerpt: The present invention has met the above-described need. In one embodiment, it provides a method of automatically testing the sensitivity of a paraffinophilic microorganism to different antimicrobial agents, such as antibiotics, and concentrations thereof, by providing a plurality of receptacles, each containing an amount of liquid medium, an antimicrobial agent to be tested and the microorganism to be tested. In each of the receptacles is placed a slide containing a paraffin source. The receptacles are then incubated, after which a light scatter sensing means automatically and sequentially monitors the extent of microorganism growth on the slides. The extent of colony growth is employed to determine which antimicrobial agent in which concentration is effective to resist growth of the microorganism. A preferred light scatter sensing means is a nephelometer.
Referring specifically to FIG. 1, there is shown a preferred embodiment of the present invention usable in a method of automatically testing the sensitivity of a pure culture of a microorganism to different antimicrobial agents and concentrations thereof. In this embodiment, a microorganism, which may have been previously speciated as by the technique taught in U.S. Pat. No. 5,153, 119, has been introduced into a plurality of receptacles, each containing an amount of liquid medium and antimicrobial agent to be tested. A paraffin slide is introduced into each of the receptacles which are subsequently incubated. The receptacles 2-22 (even numbers only) are fixedly secured to an elongated, substantially rigid movable carrier member 26, such that the receptacles 2-22 will be translated therewith in the direction shown by the arrow A. The carrier member 26 may be made of any suitable material, such as aluminum, steel, stainless steel, or resinous plastic, for example. The receptacles 2-22, respectively, contain slides 32-52 (even numbers only). The slides 32-52 are fixedly secured, respectively, within receptacles 2-22 which may test tubes. The slides 32-52 are generally oriented so as to have their elongated direction aligned with the direction of travel of the carrier 26. As the carrier moves in the direction of arrow A, the slides 2-22 will sequentially be positioned in operative relationship to the light scatter sensing means which consists of light source 60, which directs a light beam toward light detector 62. In the preferred embodiment, a beam of visible light from light source 60 will impinge upon slide 32, with the growth of the microorganism thereon producing a corresponding scatter of light which is received by the light receiving sensor 62 and converts the received light into an appropriate output electrical signal which will be delivered to computer means 64. The computer means 64, in turn, provides output to output means 66, which may conveniently be a display, such as a cathode ray tube or a hard copy printer, for example. The degree of light scatter will be related to the extent of microorganism growth with light scatter increasing as growth on the slide increases.
The computer means 64 may be a general purpose digital microprocessor. It may be programmed in a manner readily known to those skilled in the art to sequentially compare the light scatter value of each slide 32-52 with that of a control slide and to provide an output to output means 66, such as a visual screen display or hard copy, with or without prior enhancement, which indicates the difference between the control slide and the specific slides containing the same pure culture of a paraffinophilic microorganism, but exposed to different concentrations of different or the same antimicrobial agents, such an antibiotics. In this manner, there is provided the minimal concentration level of a specific antimicrobial agent that must be used to control growth of the microorganism. Also, the minimum bactericidal concentration may be determined. […]

[1] = Table 2, Exp. Series I, strain 7

NCC[C@H](O)C(=O)N[C@@H]1C[C@H](N)[C@@H](O[C@H]2O[C@H](CN)[C@@H](O)[C@H](O)[C@H]2O)[C@H](O)[C@H]1O[C@H]1O[C@H](CO)[C@@H](O)[C@H](N)[C@H]1O [amikacin]
> 16 µg/mL: MIC (Mycobacterium avium-intracellulare, Table 2, Exp. Series I, strain 1, read-out: MIC) | MIC (Mycobacterium avium-intracellulare, Table 2, Exp. Series I, strain 2, read-out: MIC) | MIC (Mycobacterium avium-intracellulare, Table 2, Exp. Series I, strain 8, read-out: MIC) | MIC (Mycobacterium avium-intracellulare, Table 2, Exp. Series II, strain 1, read-out: MIC) | MIC (Mycobacterium avium-intracellulare, Table 2, Exp. Series II, strain 8, read-out: MIC) | MIC (Mycobacterium avium-intracellulare, Table 2, Exp. Series II, strain 14, read-out: MIC)
9.6 µg/mL: MIC (Mycobacterium avium-intracellulare, Table 2, Exp. Series I, strain 14, read-out: MIC) | MIC (Mycobacterium avium-intracellulare, Table 2, Exp. Series II, strain 11, read-out: MIC) | MIC (Mycobacterium avium-intracellulare, Table 2, Exp. Series II, strain 13, read-out: MIC) | MIC (Mycobacterium avium-intracellulare, Table 2, Exp. Series II, strain 16, read-out: MIC)
5 days: Days to Confluency (Table 2, Exp. Series I, strain 11) | Days to Confluency (Table 2, Exp. Series I, strain 12) | Days to Confluency (Table 2, Exp. Series I, strain 14) | Days to Confluency (Table 2, Exp. Series I, strain 15) | Days to Confluency (Table 2, Exp. Series I, strain 16) | Days to Confluency (Table 2, Exp. Series II, strain 4) | Days to Confluency (Table 2, Exp. Series II, strain 5) | Days to Confluency (Table 2, Exp. Series II, strain 6) | Days to Confluency (Table 2, Exp. Series II, strain 7) | Days to Confluency (Table 2, Exp. Series III, strain 1) | Days to Confluency (Table 2, Exp. Series III, strain 2) | Days to Confluency (Table 2, Exp. Series III, strain 5) | Days to Confluency (Table 2, Exp. Series III, strain 6) | Days to Confluency (Table 2, Exp. Series III, strain 7) | Days to Confluency (Table 2, Exp. Series III, strain 8) | Days to Confluency (Table 2, Exp. Series III, strain 10) | Days to Confluency (Table 2, Exp. Series III, strain 11) | Days to Confluency (Table 2, Exp. Series III, strain 12) | Days to Confluency (Table 2, Exp. Series III, strain 14) | Days to Confluency (Table 2, Exp. Series III, strain 15) | Days to Confluency (Table 2, Exp. Series III, strain 16)
12 days: Days to Confluency (Table 2, Exp. Series III, strain 3)
6.4 µg/mL: MIC (Mycobacterium avium-intracellulare, Table 2, Exp. Series I, strain 3, read-out: MIC) | MIC (Mycobacterium avium-intracellulare, Table 2, Exp. Series I, strain 5, read-out: MIC) | MIC (Mycobacterium avium-intracellulare, Table 2, Exp. Series I, strain 10, read-out: MIC) | MIC (Mycobacterium avium-intracellulare, Table 2, Exp. Series I, strain 15, read-out: MIC) | MIC (Mycobacterium avium-intracellulare, Table 2, Exp. Series I, strain 16, read-out: MIC) | MIC (Mycobacterium avium-intracellulare, Table 2, Exp. Series II, strain 3, read-out: MIC) | MIC (Mycobacterium avium-intracellulare, Table 2, Exp. Series II, strain 4, read-out: MIC) | MIC (Mycobacterium avium-intracellulare, Table 2, Exp. Series II, strain 7, read-out: MIC) | MIC (Mycobacterium avium-intracellulare, Table 2, Exp. Series II, strain 10, read-out: MIC) | MIC (Mycobacterium avium-intracellulare, Table 2, Exp. Series II, strain 12, read-out: MIC) | MIC (Mycobacterium avium-intracellulare, Table 2, Exp. Series II, strain 15, read-out: MIC) | MIC (Mycobacterium avium-intracellulare, Table 2, Exp. Series III, strain 3, read-out: MIC) | MIC (Mycobacterium avium-intracellulare, Table 2, Exp. Series III, strain 7, read-out: MIC) | MIC (Mycobacterium avium-intracellulare, Table 2, Exp. Series III, strain 11, read-out: MIC) | MIC (Mycobacterium avium-intracellulare, Table 2, Exp. Series III, strain 12, read-out: MIC) | MIC (Mycobacterium avium-intracellulare, Table 2, Exp. Series III, strain 13, read-out: MIC) | MIC (Mycobacterium avium-intracellulare, Table 2, Exp. Series III, strain 14, read-out: MIC)
7.3 µg/mL: MIC (Mycobacterium avium-intracellulare, Table 2, Exp. Series I, strain 11, read-out: MIC)
12 µg/mL: MIC (Mycobacterium avium-intracellulare, Table 2, Exp. Series I, strain 6, read-out: MIC) | MIC (Mycobacterium avium-intracellulare, Table 2, Exp. Series I, strain 9, read-out: MIC) | MIC (Mycobacterium avium-intracellulare, Table 2, Exp. Series II, strain 2, read-out: MIC)
3.2 µg/mL: MIC (Mycobacterium avium-intracellulare, Table 2, Exp. Series I, strain 4, read-out: MIC) | MIC (Mycobacterium avium-intracellulare, Table 2, Exp. Series I, strain 12, read-out: MIC) | MIC (Mycobacterium avium-intracellulare, Table 2, Exp. Series I, strain 13, read-out: MIC) | MIC (Mycobacterium avium-intracellulare, Table 2, Exp. Series II, strain 5, read-out: MIC) | MIC (Mycobacterium avium-intracellulare, Table 2, Exp. Series II, strain 6, read-out: MIC) | MIC (Mycobacterium avium-intracellulare, Table 2, Exp. Series II, strain 9, read-out: MIC) | MIC (Mycobacterium avium-intracellulare, Table 2, Exp. Series III, strain 1, read-out: MIC) | MIC (Mycobacterium avium-intracellulare, Table 2, Exp. Series III, strain 2, read-out: MIC) | MIC (Mycobacterium avium-intracellulare, Table 2, Exp. Series III, strain 4, read-out: MIC) | MIC (Mycobacterium avium-intracellulare, Table 2, Exp. Series III, strain 5, read-out: MIC) | MIC (Mycobacterium avium-intracellulare, Table 2, Exp. Series III, strain 6, read-out: MIC) | MIC (Mycobacterium avium-intracellulare, Table 2, Exp. Series III, strain 8, read-out: MIC) | MIC (Mycobacterium avium-intracellulare, Table 2, Exp. Series III, strain 9, read-out: MIC) | MIC (Mycobacterium avium-intracellulare, Table 2, Exp. Series III, strain 10, read-out: MIC) | MIC (Mycobacterium avium-intracellulare, Table 2, Exp. Series III, strain 15, read-out: MIC) | MIC (Mycobacterium avium-intracellulare, Table 2, Exp. Series III, strain 16, read-out: MIC)
7 days: Days to Confluency (Table 2, Exp. Series I, strain 1) | Days to Confluency (Table 2, Exp. Series I, strain 2) | Days to Confluency (Table 2, Exp. Series I, strain 5) | Days to Confluency (Table 2, Exp. Series I, strain 6) | Days to Confluency (Table 2, Exp. Series I, strain 8) | Days to Confluency (Table 2, Exp. Series II, strain 1) | Days to Confluency (Table 2, Exp. Series II, strain 2) | Days to Confluency (Table 2, Exp. Series II, strain 8) | Days to Confluency (Table 2, Exp. Series III, strain 9)
6 days: Days to Confluency (Table 2, Exp. Series I, strain 10) | Days to Confluency (Table 2, Exp. Series I, strain 13) | Days to Confluency (Table 2, Exp. Series II, strain 9) | Days to Confluency (Table 2, Exp. Series II, strain 10) | Days to Confluency (Table 2, Exp. Series II, strain 11) | Days to Confluency (Table 2, Exp. Series II, strain 12) | Days to Confluency (Table 2, Exp. Series II, strain 13) | Days to Confluency (Table 2, Exp. Series II, strain 14) | Days to Confluency (Table 2, Exp. Series II, strain 15) | Days to Confluency (Table 2, Exp. Series II, strain 16) | Days to Confluency (Table 2, Exp. Series III, strain 4) | Days to Confluency (Table 2, Exp. Series III, strain 13)
NG: Days to Confluency [1] | MIC [1]
8 days: Days to Confluency (Table 2, Exp. Series I, strain 3) | Days to Confluency (Table 2, Exp. Series I, strain 4) | Days to Confluency (Table 2, Exp. Series I, strain 9)
9 days: Days to Confluency (Table 2, Exp. Series II, strain 3)
